Reference: patent US20200190593A1, “SPLICEOSOME MUTATIONS AND USES THEREOF” (EISAI R&D MANAGEMENT CO., LTD., priority 2017, published 2020)

How the values were obtained:
Assay type in all cases: cell-based
[1] = test system: HCT116 resistant clones carrying SF3B1 (R1074H, V1078A/I) or PHF5A Y36C mutations; assay: CellTiter-Glo growth inhibition profiling of E7107/herboxidiene resistant HCT116 clones; conditions: 72 hour CellTiter-Glo, HCT116 resistant clones vs parental
Protocol: 2.5 million HCT116 cells were seeded in each 10 cm dish and treated with indicated dosages of splicing modulators for 2 weeks. Compounds were refreshed every 4 days. When needed, confluent dishes were split 1:3 and cells were allowed to recover overnight without splicing modulator treatment after re-seeding. At the end of the compound selection period, surviving individual clones were picked and transferred to 12-well plates. Individual resistant clones were further expanded without splicing modulator treatment and 1 million cells from each clone were pelleted for genomic DNA extraction using the DNeasy Blood & Tissue Kit from Qiagen. Whole exome sequencing (WXS) libraries were generated by Novogene Corporation using Agilent SureSelect Human All Exon V6 kit and sequenced on Illumina HiSeq platform. 12G raw data were gathered for each sample. WXS reads were then aligned to hg19 by BWA-MEM (Shi et al., Nature biotechnology 33, 661-7 (2015)) and somatic mutations were identified with MuTect2 (Schenone et al., Nature chemical biology 9, 232-40 (2013)) through Sentieon pipeline (Wacker et al., Nature chemical biology 8, 235-7 (2012)) by pairing resistant clone with parental cell lines. As the resistant clones for WXS were selected, the allele frequencies for the mutations which are responsible for the resistance should be high. Non-silent mutations (among the H3 curated spliceosome genes) with allele frequency higher than 0.2 were focused on.
For CellTiter-Glo analysis, 500 cells were seeded in each well of a 384-well plate the day before compound addition. An 11 part serial dilution was used starting with a top final dosage of 10 μM for ten additional doses. DMSO percentage was maintained throughout and a DMSO only control was included. 72 hours post compound addition; CellTiter-Glo reagent was added to the medium, incubated and assayed on EnVision Multilabel Reader (PerkinElmer). The luminescence value from each treatment sample was normalized to the average value of the respective DMSO control. The dosage response curve plots were generated using Graphpad Prism 6 and fit using nonlinear regression analysis and the log (inhibitor) vs. response—Variable slope (four parameters). For heatmap summarization of IC50 shifts, IC50 value were extracted from dosage response curves and the fold changes of IC50 values in PHF5A variants expressing lines over that of the WT lines were calculated and plotted using TIBCO Spotfire software. For IC50s greater than the top dosage, the values were arbitrarily set at 10 μM. Unsupervised clustering analysis was performed in TIBCO Spotfire using the following default parameters: Clustering method: UPGMA; Distance measure: Euclidean; Ordering weight: Average value; Normalization: (None); Empty value replacement: Constant value: 0.

[2] = test system: PHF5A Y36C over-expressing PANC0504 cells; assay: Growth inhibition in PANC0504 cells over-expressing PHF5A Y36C
Protocol: Parental HCT116 cells were obtained from ATCC and cultured in RPMI 1640 medium (Thermo Fisher, GIBCO #11875) supplemented with 10% FBS. Parental Panc0504 cells were obtained from ATCC and cultured in GIBCO RPMI 1640 medium (Thermo Fisher, GIBCO #11875) supplemented with glucose (to 4.5 g/L final), HEPES (10 mM final), sodium pyruvate (1 mM final), human insulin (10 μg/ml final) and 15% FBS. Cell line authentication was achieved by genetic profiling using polymorphic short tandem repeat (STR) loci (ATCC). All cell lines were free of mycoplasma contamination. […]
(§1) For CellTiter-Glo analysis, 500 cells were seeded in each well of a 384-well plate the day before compound addition. […] 72 hours post compound addition; CellTiter-Glo reagent was added to the medium, incubated and assayed on EnVision Multilabel Reader (PerkinElmer). The luminescence value from each treatment sample was normalized to the average value of the respective DMSO control. […] For heatmap summarization of IC50 shifts, IC50 value were extracted from dosage response curves and the fold changes of IC50 values in PHF5A variants expressing lines over that of the WT lines were calculated and plotted using TIBCO Spotfire software. […]

HCT116 cells = assay: CellTiter-Glo growth inhibition, parental HCT116; conditions: Homo sapiens, HCT-116; in HCT116
Protocol: Parental HCT116 cells were obtained from ATCC and cultured in RPMI 1640 medium (Thermo Fisher, GIBCO #11875) supplemented with 10% FBS. Parental Panc0504 cells were obtained from ATCC and cultured in GIBCO RPMI 1640 medium (Thermo Fisher, GIBCO #11875) supplemented with glucose (to 4.5 g/L final), HEPES (10 mM final), sodium pyruvate (1 mM final), human insulin (10 μg/ml final) and 15% FBS. Cell line authentication was achieved by genetic profiling using polymorphic short tandem repeat (STR) loci (ATCC). All cell lines were free of mycoplasma contamination. Lenti-X-293T cells (Clontech Laboratories, Inc. Cat #632180), a cell line for lentiviral packaging, was maintained in Dulbecco's modified Eagle's medium (Thermo Fisher, GIBCO #11965) containing 10% fetal bovine serum and 4 mM L-glutamine. WT PHF5A cDNA was obtained from Genecopoeia and cloned into a pDONR 221 vector (Thermo Fisher). Sequence verified positive clones were cloned into pLenti6.3N5 vector (Thermo Fisher) through LR recombination. Mutagenesis of Y36 and V37 were carried using Agilent Quickchange II kit following manufacturer's recommendation using the PHF5A WT plasmid. All primers used for mutagenesis were designed used the QuikChange Primer Design tool by Agilent. Verified positive clones of PHF5A Y36 or V37 variants were used for lentivirus production using X293T cells. Parental HCT116 cells and Panc0504 cells were then infected with virus containing medium and selected with Blasticidin S (Thermo Fisher) at 10 μg/ml for one week. Engineered cell lines were maintained in the same medium without antibiotics. The following primary antibodies were used at 1:1000 dilution for western blot analysis in LI-COR buffer (LI-COR): α-SF3B1 mouse monoclonal antibody (MBL, D221-3), α-SF3B3 rabbit polyclonal antibody (Protein Tech, 14577-1-AP), α-SF3B4 goat polyclonal antibody (Santa Cruz, 14276), α-SF3B6/p14 rabbit polyclonal antibody (Protein Tech, 12379-1-AP), α-PHF5A rabbit polyclonal antibody (Protein Tech, 15554-1-AP). α-GAPDH rabbit polyclonal antibody (Sigma, G9545) was used at 1:10,000. […]
as §1

[3] = test system: MCL1 splicing (ES/IR events) in PHF5A WT expressing HCT116 cells; assay: Taqman gene expression analysis of MCL1 isoforms, PHF5A WT cells; conditions: 4 hour treatment
Protocol: 8000 cells of indicated genotypes were seeded in each well of 96-well plate and allowed to settle overnight. On the second day, 11 points serial dilution (1:4 fold dilution across) of indicated compound with a top dosage of 10 μM final was added to the culturing medium. 4 hour post compound addition, culturing medium was decanted and washed once with PBS. PBS was then decanted completely from the plate and Lysis buffer (plus DNase I) from TaqMan Gene Expression Cells-to-CT Kit (Thermo Fisher, cat # AM1729) was added according to the manual. After 5 mins incubation at room temperature on the shaker, stop solution was added to each well and incubated for 2 min. Reverse transcription was set up immediately using the Cells-to-CT Kit and cDNAs were used for quantitative real time PCR analysis using Viia7 (Thermo Fisher). Each reaction is multiplexed with a FAM labelled probe targeting specific target gene splicing isoforms and a VIC labelled probe targeted 18S rRNA as loading control. Therefore, the FAM Ct value in each well was first normalized to the VIC Ct value in the same well before further normalization to the FAM/VIC ratio of DMSO treated control samples to calculate fold change over DMSO. Graphs were generated using Graphpad Prism 6, n=2. Taqman gene expression probes used in these assays are: […]

CC(C)C[C@H](NC(=O)[C@H](Cc1ccccc1)NC(=O)c1cnccn1)B(O)O [bortezomib]
resistance conferred by mutations in resistant clones (growth inhibition profiling) [1]: did not affect the cell lines sensitivity | resistant phenotype upon PHF5A Y36C over-expression [2]: not

CNC(=O)O[C@@H](C)/C=C\C(=O)N[C@H]1CC[C@@H](C/C=C(C)/C=C/[C@@H]2C[C@]3(CO3)CC(C)(C)O2)CC1 [sudemycin D6]
GI50 (HCT116 cells): 149 nM | resistance conferred by mutations in resistant clones (growth inhibition profiling) [1]: SF3B1-R1074H mutation also conferred better resistance | dose-dependent induction of MCL1 ES and IR events [3]: IR events were not observed

CO[C@H]([C@@H](C)[C@H]1O[C@]1(C)C[C@H](C)/C=C/C=C(\C)[C@H]1O[C@@H](CC(=O)O)CC[C@@H]1C)[C@@H](C)O [herboxidiene]
GI50 (HCT116 cells): 7.6 nM | resistance conferred by mutations in resistant clones (growth inhibition profiling) [1]: PHF5A-Y36C mutation rendered more resistance | dose-dependent induction of MCL1 ES and IR events [3]: even more pronounced effect
